# Assay results: patent US8633200B2, “Inhibitors of human immunodeficiency virus replication” (priority 2010, dated 2014)
# Where a name gives a salt, the structure may show the parent alone.
# Test system: recombinant NL-Rluc virus (NL4-3 with Renilla Luciferase gene) in MT-2 cells
# Assay: Inhibition of HIV replication (NL-Rluc luciferase reporter virus, MT-2 cells)
# Format: cell-based, human immunodeficiency virus (HIV)
# Settings: NL43, 120 h, read-out: Activity
row,SMILES,EC50 [µM]
1,Cc1nc2cc(-c3ccccc3)nn2c(-c2cccc3ncccc23)c1C(OC(C)(C)C)C(=O)O (stereo not shown) [Example 71],> 1
2,Cc1nc2cc(-c3ccccc3)nn2c(-c2cccc3[nH]ccc23)c1C(OC(C)(C)C)C(=O)O (stereo not shown) [Example 72],> 1
3,Cc1nc2cc(-c3ccccc3)nn2c(-c2cccc3cnccc23)c1C(OC(C)(C)C)C(=O)O (stereo not shown) [Example 73],> 1
4,Cc1nc2cc(-c3ccccc3)nn2c(-c2ccc3nccnc3c2)c1C(OC(C)(C)C)C(=O)O (stereo not shown) [Example 74],> 1
5,Cc1nc2cc(-c3ccccc3)nn2c(-c2ccc(N(C)C)cc2)c1C(OC(C)(C)C)C(=O)O (stereo not shown) [Example 75],> 1
6,Cc1nc2cc(-c3ccccc3)nn2c(-c2ccc3cn[nH]c3c2)c1C(OC(C)(C)C)C(=O)O (stereo not shown) [Example 76],> 1
7,Cc1ccc(-c2c(C(OC(C)(C)C)C(=O)O)c(C)nc3cc(-c4ccccc4)nn23)cn1 (stereo not shown) [Example 77],> 1
8,Cc1nc2cc(-c3ccccc3)nn2c(-c2cnc3[nH]ccc3c2)c1C(OC(C)(C)C)C(=O)O (stereo not shown) [Example 78],> 1
9,Cc1nc2cc(-c3ccccc3)nn2c(-c2ccc3ccncc3c2)c1C(OC(C)(C)C)C(=O)O (stereo not shown) [Example 79],> 1
10,Cc1nc2cc(-c3ccccc3)nn2c(-c2cccc3cn[nH]c23)c1C(OC(C)(C)C)C(=O)O (stereo not shown) [Example 80],> 1
11,Cc1nc2cc(-c3ccccc3)nn2c(-c2ccc(Cl)cc2Cl)c1C(OC(C)(C)C)C(=O)O (stereo not shown) [Example 81],> 1
12,Cc1nc2cc(-c3ccccc3)nn2c(-c2ccc(F)c(Cl)c2)c1C(OC(C)(C)C)C(=O)O (stereo not shown) [Example 82],> 1
13,Cc1nc2cc(-c3ccccc3)nn2c(-c2ccc(F)c(F)c2)c1C(OC(C)(C)C)C(=O)O (stereo not shown) [Example 83],> 1
14,Cc1nc2cc(-c3ccccc3)nn2c(-c2ccc(Cl)c(Cl)c2)c1C(OC(C)(C)C)C(=O)O (stereo not shown) [Example 84],> 1
15,Cc1nc2cc(-c3ccccc3)nn2c(-c2cccc(Cl)c2Cl)c1C(OC(C)(C)C)C(=O)O (stereo not shown) [Example 85],> 1
16,Cc1nc2cc(-c3ccccc3)nn2c(-c2ccc(Cl)c(F)c2)c1C(OC(C)(C)C)C(=O)O (stereo not shown) [Example 86],> 1
17,Cc1nc2cc(-c3ccccc3)nn2c(-c2ccc(C)c3ccccc23)c1C(OC(C)(C)C)C(=O)O (stereo not shown) [Example 87],> 1
18,COc1ccc(-c2c(C(OC(C)(C)C)C(=O)O)c(C)nc3cc(-c4ccccc4)nn23)cc1C (stereo not shown) [Example 88],> 1
19,Cc1nc2cc(-c3ccccc3)nn2c(-c2ccc3c(c2)OCCCO3)c1C(OC(C)(C)C)C(=O)O (stereo not shown) [Example 89],> 1
20,Cc1nc2cc(-c3ccccc3)nn2c(-c2ccc(F)cc2Cl)c1C(OC(C)(C)C)C(=O)O (stereo not shown) [Example 90],> 1

row,SMILES,EC50 [µM]
1,Cc1ccc(-c2c(C(OC(C)(C)C)C(=O)O)c(C)nc3cc(-c4ccccc4)nn23)c(C)c1 (stereo not shown) [Example 91],> 1
2,"COc1ccc(-c2cc3nc(C)c(C(OC(C)(C)C)C(=O)O)c(-c4cc(F)c5c(c4C)CCCO5)n3n2)cc1 (stereo not shown) [Example 92, 2-tert-Butoxy-2-(7-(8-fluoro-5-methylchroman-6-yl)-2-(4-methoxyphenyl)-5-methylpyrazolo[1,5-a]pyrimidin-6-yl)acetic acid, TFA salt]",0.1 to 1
3,"Cc1nc2cc(-c3cccc(OCc4ccccc4)c3)nn2c(-c2cc(F)c3c(c2C)CCCO3)c1C(OC(C)(C)C)C(=O)O (stereo not shown) [Example 93, 2-(2-(3-(Benzyloxy)phenyl)-7-(8-fluoro-5-methylchroman-6-yl)-5-methylpyrazolo[1,5-a]pyrimidin-6-yl)-2-tert-butoxyacetic acid, TFA salt]",< 0.1
4,"Cc1nc2cc(-c3cccc(OCc4ccccc4)c3)nn2c(-c2cc(F)c3c(c2C)CCCO3)c1[C@H](OC(C)(C)C)C(=O)O [Example 94, (2S)-2-(2-(3-(Benzyloxy)phenyl)-7-(8-fluoro-5-methylchroman-6-yl)-5-methyl-pyrazolo[1,5-a]pyrimidin-6-yl)-2-tert-butoxyacetic acid]",< 0.1
5,"Cc1nc2cc(-c3ccc(OCc4ccccc4)cc3)nn2c(-c2cc(F)c3c(c2C)CCCO3)c1C(OC(C)(C)C)C(=O)O (stereo not shown) [Example 95, 2-(2-(4-(Benzyloxy)phenyl)-7-(8-fluoro-5-methylchroman-6-yl)-5-methylpyrazolo[1,5-a]pyrimidin-6-yl)-2-tert-butoxyacetic acid, TFA salt]",< 0.1
6,"Cc1nc2cc(-c3ccc(Cl)cc3)nn2c(-c2cc(F)c3c(c2C)CCCO3)c1C(OC(C)(C)C)C(=O)O (stereo not shown) [Example 96, 2-tert-Butoxy-2-(2-(4-chlorophenyl)-7-(8-fluoro-5-methylchroman-6-yl)-5-methylpyrazolo[1,5-a]pyrimidin-6-yl)acetic acid, TFA salt]",0.1 to 1
7,"Cc1nc2cc(-c3cccc(Oc4ccccc4)c3)nn2c(-c2cc(F)c3c(c2C)CCCO3)c1C(OC(C)(C)C)C(=O)O (stereo not shown) [Example 97, 2-tert-Butoxy-2-(7-(8-fluoro-5-methylchroman-6-yl)-5-methyl-2-(3-phenoxyphenyl)pyrazolo[1,5-a]pyrimidin-6-yl)acetic acid, TFA salt]",< 0.1
8,"Cc1ccccc1-c1cc2nc(C)c(C(OC(C)(C)C)C(=O)O)c(-c3cc(F)c4c(c3C)CCCO4)n2n1 (stereo not shown) [Example 98, 2-tert-Butoxy-2-(7-(8-fluoro-5-methylchroman-6-yl)-5-methyl-2-o-tolylpyrazolo[1,5-a]pyrimidin-6-yl)acetic acid, TFA salt]",> 1
9,"COc1cccc(-c2cc3nc(C)c(C(OC(C)(C)C)C(=O)O)c(-c4cc(F)c5c(c4C)CCCO5)n3n2)c1 (stereo not shown) [Example 99, 2-tert-Butoxy-2-(7-(8-fluoro-5-methylchroman-6-yl)-2-(3-methoxyphenyl)-5-methylpyrazolo[1,5-a]pyrimidin-6-yl)acetic acid]",0.1 to 1
10,"CCc1ccc(-c2cc3nc(C)c(C(OC(C)(C)C)C(=O)O)c(-c4cc(F)c5c(c4C)CCCO5)n3n2)cc1 (stereo not shown) [Example 100, 2-tert-Butoxy-2-(2-(4-ethylphenyl)-7-(8-fluoro-5-methylchroman-6-yl)-5-methylpyrazolo[1,5-a]pyrimidin-6-yl)acetic acid, TFA salt]",0.1 to 1
11,"Cc1nc2cc(-c3cccc(OCc4ccc(F)cc4)c3)nn2c(-c2cc(F)c3c(c2C)CCCO3)c1C(OC(C)(C)C)C(=O)O (stereo not shown) [Example 101, 2-tert-Butoxy-2-(7-(8-fluoro-5-methylchroman-6-yl)-2-(3-(4-fluorobenzyloxy)phenyl)-5-methylpyrazolo[1,5-a]pyrimidin-6-yl)acetic acid, TFA salt]",< 0.1
12,"Cc1nc2cc(-c3cccc(OCc4ccccc4Cl)c3)nn2c(-c2cc(F)c3c(c2C)CCCO3)c1C(OC(C)(C)C)C(=O)O (stereo not shown) [Example 102, 2-tert-Butoxy-2-(2-(3-(2-chlorobenzyloxy)phenyl)-7-(8-fluoro-5-methylchroman-6-yl)-5-methylpyrazolo[1,5-a]pyrimidin-6-yl)acetic acid, TFA salt]",< 0.1
13,"COc1ccc(COc2cccc(-c3cc4nc(C)c(C(OC(C)(C)C)C(=O)O)c(-c5cc(F)c6c(c5C)CCCO6)n4n3)c2)cc1 (stereo not shown) [Example 103, 2-tert-Butoxy-2-(7-(8-fluoro-5-methylchroman-6-yl)-2-(3-(4-methoxybenzyloxy)phenyl)-5-methylpyrazolo[1,5-a]pyrimidin-6-yl)acetic acid, TFA salt]",< 0.1
14,"Cc1nc2cc(-c3cccc(OCc4cccc(Cl)c4)c3)nn2c(-c2cc(F)c3c(c2C)CCCO3)c1C(OC(C)(C)C)C(=O)O (stereo not shown) [Example 104, 2-tert-Butoxy-2-(2-(3-(3-chlorobenzyloxy)phenyl)-7-(8-fluoro-5-methylchroman-6-yl)-5-methylpyrazolo[1,5-a]pyrimidin-6-yl)acetic acid, TFA salt]",< 0.1
15,"Cc1ccc(-c2cc3nc(C)c(C(OC(C)(C)C)C(=O)O)c(-c4cc(F)c5c(c4C)CCCO5)n3n2)cc1OCc1ccccc1 (stereo not shown) [Example 105, 2-(2-(3-(Benzyloxy)-4-methylphenyl)-7-(8-fluoro-5-methylchroman-6-yl)-5-methylpyrazolo[1,5-a]pyrimidin-6-yl)-2-tert-butoxyacetic acid]",< 0.1
16,"Cc1nc2cc(-c3cccc(OCc4ccc(Cl)cc4)c3)nn2c(-c2cc(F)c3c(c2C)CCCO3)c1C(OC(C)(C)C)C(=O)O (stereo not shown) [Example 106, 2-tert-Butoxy-2-(2-(3-(4-chlorobenzyloxy)phenyl)-7-(8-fluoro-5-methylchroman-6-yl)-5-methylpyrazolo[1,5-a]pyrimidin-6-yl)acetic acid, TFA salt]",< 0.1
17,"Cc1nc2cc(-c3ccnc(OCc4ccccc4)c3)nn2c(-c2cc(F)c3c(c2C)CCCO3)c1C(OC(C)(C)C)C(=O)O (stereo not shown) [Example 107, 2-(2-(2-(Benzyloxy)pyridin-4-yl)-7-(8-fluoro-5-methylchroman-6-yl)-5-methylpyrazolo[1,5-a]pyrimidin-6-yl)-2-tert-butoxyacetic acid, TFA salt]",< 0.1
18,"Cc1nc2cc(-c3ccc(OCc4ccccc4)nc3)nn2c(-c2cc(F)c3c(c2C)CCCO3)c1C(OC(C)(C)C)C(=O)O (stereo not shown) [Example 108, 2-(2-(6-(Benzyloxy)pyridin-3-yl)-7-(8-fluoro-5-methylchroman-6-yl)-5-methylpyrazolo[1,5-a]pyrimidin-6-yl)-2-tert-butoxyacetic acid, TFA salt]",< 0.1
19,"Cc1nc2cc(-c3ccnc(F)c3)nn2c(-c2cc(F)c3c(c2C)CCCO3)c1C(OC(C)(C)C)C(=O)O (stereo not shown) [Example 109, 2-tert-Butoxy-2-(7-(8-fluoro-5-methylchroman-6-yl)-2-(2-fluoropyridin-4-yl)-5-methylpyrazolo[1,5-a]pyrimidin-6-yl)acetic acid, TFA salt]",0.1 to 1
20,"Cc1nc2cc(-c3cccc(C(=O)Nc4ccccc4)c3)nn2c(-c2cc(F)c3c(c2C)CCCO3)c1C(OC(C)(C)C)C(=O)O (stereo not shown) [Example 110, 2-tert-Butoxy-2-(7-(8-fluoro-5-methylchroman-6-yl)-5-methyl-2-(3-(phenylcarbamoyl)phenyl)pyrazolo[1,5-a]pyrimidin-6-yl)acetic acid, TFA salt]",0.1 to 1

# Same assay, conditions: NL43, 120 h, read-out: EC50 μM
row,SMILES,EC50 [µM]
1,"Cc1nc2cc(-c3cccc(OCc4ccccc4)c3)nn2c(-c2cc(F)c3c(c2C)CCCO3)c1C(OC(C)(C)C)C(=O)O (stereo not shown) [Example 93, 2-(2-(3-(Benzyloxy)phenyl)-7-(8-fluoro-5-methylchroman-6-yl)-5-methylpyrazolo[1,5-a]pyrimidin-6-yl)-2-tert-butoxyacetic acid, TFA salt]",0.1
2,"Cc1nc2cc(-c3cccc(Oc4ccccc4)c3)nn2c(-c2cc(F)c3c(c2C)CCCO3)c1C(OC(C)(C)C)C(=O)O (stereo not shown) [Example 97, 2-tert-Butoxy-2-(7-(8-fluoro-5-methylchroman-6-yl)-5-methyl-2-(3-phenoxyphenyl)pyrazolo[1,5-a]pyrimidin-6-yl)acetic acid, TFA salt]",0.06
3,"COc1cccc(-c2cc3nc(C)c(C(OC(C)(C)C)C(=O)O)c(-c4cc(F)c5c(c4C)CCCO5)n3n2)c1 (stereo not shown) [Example 99, 2-tert-Butoxy-2-(7-(8-fluoro-5-methylchroman-6-yl)-2-(3-methoxyphenyl)-5-methylpyrazolo[1,5-a]pyrimidin-6-yl)acetic acid]",0.35
4,"Cc1nc2cc(-c3cccc(OCc4ccc(Cl)cc4)c3)nn2c(-c2cc(F)c3c(c2C)CCCO3)c1C(OC(C)(C)C)C(=O)O (stereo not shown) [Example 106, 2-tert-Butoxy-2-(2-(3-(4-chlorobenzyloxy)phenyl)-7-(8-fluoro-5-methylchroman-6-yl)-5-methylpyrazolo[1,5-a]pyrimidin-6-yl)acetic acid, TFA salt]",0.04
5,"Cc1nc2cc(-c3ccnc(OCc4ccccc4)c3)nn2c(-c2cc(F)c3c(c2C)CCCO3)c1C(OC(C)(C)C)C(=O)O (stereo not shown) [Example 107, 2-(2-(2-(Benzyloxy)pyridin-4-yl)-7-(8-fluoro-5-methylchroman-6-yl)-5-methylpyrazolo[1,5-a]pyrimidin-6-yl)-2-tert-butoxyacetic acid, TFA salt]",0.008
6,"Cc1nc2cc(-c3ccnc(F)c3)nn2c(-c2cc(F)c3c(c2C)CCCO3)c1C(OC(C)(C)C)C(=O)O (stereo not shown) [Example 109, 2-tert-Butoxy-2-(7-(8-fluoro-5-methylchroman-6-yl)-2-(2-fluoropyridin-4-yl)-5-methylpyrazolo[1,5-a]pyrimidin-6-yl)acetic acid, TFA salt]",0.27
